The experiment has as its target T1, BTK (Canis lupus familiaris, UniProt A0A8I3P3Z9).
T1 construct: PBMCs are isolated from the blood of dogs by Ficoll Paque procedure; from tissue; host or cells: CD21+ B cells purified from PBMCs of dog blood (dogs with spontaneous lymphoma, dosed orally)
The experiment in a line: BTK target occupancy in canine peripheral CD21+ B cells after oral dosing. The experiment is classed as in vivo, dog. The settings on record: day 7 prior to repeat dose, 1 day after preceding dose; 2.5 mg/kg once daily, peroral. Here is the method:
The following method may be used for the ELISA BTK target occupancy assay. Other variations of this assay are known to those of skill in the art and may also be used. • 1. Coat a 96-well plate (Optiplate, Perkin Elmer, catalog no. 6005290) with 125 ng/well anti-BTK (BD Biosciences catalog no. 611117) in 100 μL PBS, overnight at 4° C. • 2. Wash 2×200 μL/well PBS-Tween 0.05% (PBST). • 3. Block with 245 μL/well PBST+3% bovine serum albumin (BSA), for 2 to 3 hours at room temperature while shaking. • 4. During blocking, incubate samples with acalabrutinib and probe in Eppendorf tubes: • a. Centrifuge cells 5 minutes at 5000 rpm and 4° C. in Eppendorf centrifuge. • b. Remove supernatant, dilute BTK protein or resuspend cell pellet in cold (2-8° C.) lysis buffer (see below). For amount of cells/μL, see detailed protocols for Ramos (Example 6.2), canine B cells (Example 7.2) and human PBMCs (Example 8.2). • c. Incubate on ice for 30 minutes while shaking. Vortex every 10 minutes. • d. Centrifuge for 10 minutes at 14000 rpm and 4° C. in Eppendorf centrifuge. • e. Transfer supernatant to new tube. • f. […] Wash wells 2×245 μL/well PBST. • 6. Add (in duplicate) 100 μL of each sample (with and without Formula (3)) to the wells. • 7. Incubate for 2 hours at room temperature while shaking. • 8. Wash 4×PBST, 200 μL/well. • 9. […]

Data on 1 compound can be found in patent US20190376971A1, “Compositions and Methods for the Assessment of Drug Target Occupancy for Bruton's Tyrosine Kinase” (Acerta Pharma B.V., priority 2017, published 2019).

Each structure is given as a SMILES string.

T1 sequence (A0A8I3P3Z9 1-664): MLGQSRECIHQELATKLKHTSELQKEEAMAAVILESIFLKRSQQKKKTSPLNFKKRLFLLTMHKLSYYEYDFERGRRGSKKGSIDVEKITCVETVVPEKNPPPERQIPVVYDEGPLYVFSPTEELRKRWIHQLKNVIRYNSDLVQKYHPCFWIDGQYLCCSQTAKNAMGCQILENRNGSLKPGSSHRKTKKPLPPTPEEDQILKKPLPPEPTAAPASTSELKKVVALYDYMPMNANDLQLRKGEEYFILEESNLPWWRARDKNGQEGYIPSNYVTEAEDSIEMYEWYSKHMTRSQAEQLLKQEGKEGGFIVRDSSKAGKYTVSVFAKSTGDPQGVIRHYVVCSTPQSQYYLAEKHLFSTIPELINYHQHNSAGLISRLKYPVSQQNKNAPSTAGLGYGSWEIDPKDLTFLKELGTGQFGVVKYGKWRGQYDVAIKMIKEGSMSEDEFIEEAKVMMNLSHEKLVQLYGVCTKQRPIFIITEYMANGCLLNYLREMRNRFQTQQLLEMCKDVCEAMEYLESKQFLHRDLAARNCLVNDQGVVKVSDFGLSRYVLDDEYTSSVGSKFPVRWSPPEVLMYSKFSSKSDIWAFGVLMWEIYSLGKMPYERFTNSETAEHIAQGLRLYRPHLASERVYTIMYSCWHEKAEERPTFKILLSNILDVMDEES

As to `CC#CC(=O)N1CCC[C@H]1c1nc(-c2ccc(C(=O)Nc3ccccn3)cc2)c2c(N)nccn12` [acalabrutinib], the “BTK still occupied, percentage of the predose sample” value was determined as 83%.
